These results are taken from patent publication US20160339094A1, “BACTERIAL INFLUENCE OF HOST FEEDING AND EMOTION VIA CLPB PROTEIN MIMICRY OF A-MSH” (priority 2013, published 2016).

Data set [1] deals with C57B16 mice. The data set can be described thus: ClpB immunization in mice: plasma ClpB-, α-MSH- and ACTH-reactive autoantibody ELISA. It counts as in vivo. (An ELISA detects its analyte on a solid surface through an enzyme-linked reagent.)
Experimental: Two month-old male C57B16 mice (Janvier Labs L'Arbresle, France) were acclimated to the animal facility for with 12 h light-dark cycle, lights on at 7:00 a.m. and were kept in standard mouse holding cages (n=8) in each. […] During acclimatization mice were distributed between four cages to obtain the similar mean body weight per mouse per cage. After one week of acclimatization, mice from each cage were assigned to one of four study group and received following treatments: i) Group 1, ClpB immunization (n=8): ClpB protein (Delphi Genetics) 50 μg/mouse in 200 μl of 1:1 vol. of PBS with Complete Freund's Adjuvant (CFA, Sigma), intraperitoneally (I.P.); ii) Group 2, adjuvant injection controls (n=8): 200 μl of CFA in PBS (1:1 vol., I.P.); iii) Group 3, PBS injection controls (n=8): 200 μl of PBS (I.P.) and iiii) Group 4, Intact controls (n=8): received no injections, and then all mice were returned to their holding cages. Fifteen days later, mice were given a boost immunization and the following treatments: i) Group 1 (n=8), ClpB protein (Delphi Genetics) 50 μg/mouse in 200 μl of 1:1 vol. of PBS with Incomplete Freund's Adjuvant (IFA, Sigma) I.P.; ii) Group 2 (n=8): 200 ═l of IFA in PBS (1:1 vol., I.P.); iii) Group 3, (n=8): 200 ═l of PBS (I.P.) and iiii) Group 4, (n=8): received no injections.
Two hours after the O-maze test, mice were killed by decapitation in a guillotine and trunk blood was collected into EDTA-containing tubes. Plasma was separated by centrifugation at 3,500 r.p.m. (1.4 g) for 10 min at 4° C. and stored at −80° C. before assay.
Plates were washed (5 min×3) in phosphate-buffered saline (PBS) with 0.05% Tween 200, pH 7.4, and then incubated overnight at 4° C. with 100 μl of mouse or rat plasma diluted 1:200 in PBS to determine free autoAbs levels or diluted 1:200 in dissociative 3 M NaCl, 1.5 M glycine buffer, pH 8.9 to determine total autoAbs levels. The plates were washed (3×) and incubated with 100 μl of alkaline phosphatase (AP)-conjugated goat anti-rat IgG (1:2000), anti-rat IgM (1:1000), anti-mouse IgG (1:2000), or anti-mouse IgM (1:1000) all from Jackson ImmunoResearch Laboratories, Inc. (West Grove, Pa.). Following washing (3×), 100 μl of p-nitrophenyl phosphate solution (Sigma) was added as alkaline phosphatase substrate. After 40 min of incubation at room temperature, the reaction was stopped by adding 3N NaOH. The OD was determined at 405 nm using a microplate reader Metertech 960 (Metertech Inc., Taipei, Taiwan). Blank OD values resulting from the reading of plates without addition of plasma samples were subtracted from the sample OD values. Each determination was done in duplicate. The variation between duplicate values was less than 5%.
The target in another data set is ClpB (Escherichia coli, UniProt P63284). Conditions: plasma extracted IgG of ClpB immunized mice vs other groups; SPR. Here is the method: (§1) Extraction of plasma globulins was done by plasma acidification and separation on C-18 SEP column (Phoenix Pharmaceuticals, Burlingame, Calif.) according to the manufacturer instructions. In detail, 500 μl of mouse or rat plasma was mixed with 500 μl of buffer A (1% trifluoroacetic acid TFA in water). The column was activated in 1 ml of buffer B (60% acetonitrile in 1% TFA) by 3 min centrifugation with 700 rpm and rinsed 3 times with 3 ml of buffer A. Diluted plasma (1:1 in buffer A) was added to the column and the effluent (1 ml) was saved (frozen at −20° C.) for further purification of IgG. Total IgG were purified from the effluents of rat plasma samples using the Melon Gel Kit (Thermo Fisher Scientific, Rockford, Ill.) according to the manufacturer instructions. In brief, plasma effluents diluted 1:4 in kit's purification buffer was added on washed melon gel deposited in a column. Column was spinned 1 min at 6,000 r.p.m. and the IgG containing effluent was saved and frozen at −20° C. before lyophilization. Lyophilized IgG were reconstituted in the HBS-EP buffer (GE Healthcare, Piscataway, N.J.).
(§2) For the affinity kinetic analysis, a multi-cycle method was run with five serial dilutions of each IgG sample: 3360, 1680, 840, 420 and 210 (nmol) including a duplicate of 840 nmol and a blank sample (HBS-EP buffer only).

Another data set addresses α-MSH (Homo sapiens, UniProt P01189). Conditions: IgG of ClpB immunized mice vs controls; SPR. The procedure: as §1, §2
Data set [2] deals with C57B16 mice. The data set can be described thus: ClpB immunization in mice: body weight, food intake and feeding pattern (BioDAQ cages). It counts as in vivo. The procedure: Animal care and experimentation were in accordance with guidelines established by the National Institutes of Health, USA and complied with both French and European Community regulations (Official Journal of the European Community L 358, 18 Dec. 1986). Two month-old male C57B16 mice (Janvier Labs L'Arbresle, France) were acclimated to the animal facility for with 12 h light-dark cycle, lights on at 7:00 a.m. and were kept in standard mouse holding cages (n=8) in each. Mice were fed ad libitum with standard pelleted rodent chow (RM1 diet, SDS, UK) with drinking water always available and were manipulated daily by gentle holding and measuring body weight. During acclimatization mice were distributed between four cages to obtain the similar mean body weight per mouse per cage. After one week of acclimatization, mice from each cage were assigned to one of four study group and received following treatments: i) Group 1, ClpB immunization (n=8): ClpB protein (Delphi Genetics) 50 μg/mouse in 200 μl of 1:1 vol. of PBS with Complete Freund's Adjuvant (CFA, Sigma), intraperitoneally (I.P.); ii) Group 2, adjuvant injection controls (n=8): 200 μl of CFA in PBS (1:1 vol., I.P.); iii) Group 3, PBS injection controls (n=8): 200 μl of PBS (I.P.) and iiii) Group 4, Intact controls (n=8): received no injections, and then all mice were returned to their holding cages. Fifteen days later, mice were given a boost immunization and the following treatments: i) Group 1 (n=8), ClpB protein (Delphi Genetics) 50 μg/mouse in 200 μl of 1:1 vol. of PBS with Incomplete Freund's Adjuvant (IFA, Sigma) I.P.; ii) Group 2 (n=8): 200 ═l of IFA in PBS (1:1 vol., I.P.); iii) Group 3, (n=8): 200 ═l of PBS (I.P.) and iiii) Group 4, (n=8): received no injections.
Next day after the boost, mice were placed individually in the BioDAQ mouse cages (Research Diets, Inc., New Brunswick, N.J.) each equipped with an automatic feeding monitor. Food (SERLAB, Montataire France) and drinking water were available ad libitum and body weight was measured daily. After three days of acclimation to the BioDAQ cages, mice received the following treatments: Groups 1, 2 and 3 (each n=8) i.e. mice which have been immunized with ClpB; injected with adjuvants and with PBS, respectively, […] PBS (I.P.) at 10 a.m. The control mice (n=8) received PBS only (I.P.). Feeding data was continuously monitored and analysed using the BioDAQ data viewer 2.3.07 (Research Diets). For the meal pattern analysis, the inter-meal interval was set at 300 sec.

For data set [3], the system named is C57B16 mice. The data set can be described thus: Locomotor activity and anxiety tests (open field, elevated O-maze) in immunized mice. Type of data set: in vivo. Here is the method: After the feeding study, mice were placed in individual mouse holding cages with food and water available ad libitum and were analyzed for locomotor activity and anxiety in O-maze tests performed during two consecutive days. Two hours after the O-maze test, mice were killed by decapitation in a guillotine and trunk blood was collected into EDTA-containing tubes. Plasma was separated by centrifugation at 3,500 r.p.m. ([…]) for 10 min at 4° C. and stored at −80° C. before assay.
After feeding study in the BioDAQ cages, mice were analyzed for locomotor activity using a Versamax Animal Activity Monitor (AccuScan Instruments, Inc., Columbus, Ohio). Next day after the locomotor activity test all mice were tested for their anxiety in an elevated-O-maze. The elevated-O-maze is a variation of more commonly used elevated-plus-maze pharmacologically validated for anxiety testing in rodents (Crawley, J. N. and Bailey, K. R., Methods of behavior analysis in neuroscience, 77-101 (CRC Press, 2009)). The advantage of the O-maze is that it lacks the ambiguous central square of the traditional plus-maze. The O-maze (Med Associate, Inc., St. Albans, Vt.) consisted of a circular infrared platform (outer diameter 120 cm) elevated 80 cm above the floor, featuring two open and two closed segments made of grey plastic. The closed segments were enclosed by walls extending 20 cm above the surface of the maze and covered with a black infrared Plexiglas lid. Each test started by placing the mouse into one of the two closed segments. The test lasted 5 min and was recorded using a video-camera placed above the O-maze and the EthoVision video tracking software (Noldus IT, Wageningen, The Netherlands). Measurements of distance and time spent in the open and closed segments were analyzed. Between each mouse tests, the O-maze was cleaned with a 30% alcohol.

Data set [4] deals with polyclonal rabbit anti-α-MSH antisera. The procedure:
Following 2D-PAGE, E. coli cytoplasmic proteins were transferred onto Hybond-ECL PVDF membrane (GE Healthcare) by using a dry transfer method (Trans Blot Cell, Biorad, USA) and a constant current of 0.8 mA/cm^2 of the membrane size for 2 h. After transfer, membranes were blocked with 5% (wt:v) milk (Regilait, France) in phosphate buffered saline (PBS; 10 mmol/L […], pH 8; 150 mmol/L NaCl) plus 0.05% (v:v) Tween 20.
The recombinant ClpB protein was customly produced by Delphi Genetics SA, (Gosselies, Belgium) in bacterial cultures by the ClpB cDNA synthesis and cloning into an expression vector.

Where [5] appears, read: day 22, single injection of α-MSH 100 μg/kg body weight, I.P., non-immunized vs ClpB-immunized vs controls.

Chain of ClpB (P63284 whole entry): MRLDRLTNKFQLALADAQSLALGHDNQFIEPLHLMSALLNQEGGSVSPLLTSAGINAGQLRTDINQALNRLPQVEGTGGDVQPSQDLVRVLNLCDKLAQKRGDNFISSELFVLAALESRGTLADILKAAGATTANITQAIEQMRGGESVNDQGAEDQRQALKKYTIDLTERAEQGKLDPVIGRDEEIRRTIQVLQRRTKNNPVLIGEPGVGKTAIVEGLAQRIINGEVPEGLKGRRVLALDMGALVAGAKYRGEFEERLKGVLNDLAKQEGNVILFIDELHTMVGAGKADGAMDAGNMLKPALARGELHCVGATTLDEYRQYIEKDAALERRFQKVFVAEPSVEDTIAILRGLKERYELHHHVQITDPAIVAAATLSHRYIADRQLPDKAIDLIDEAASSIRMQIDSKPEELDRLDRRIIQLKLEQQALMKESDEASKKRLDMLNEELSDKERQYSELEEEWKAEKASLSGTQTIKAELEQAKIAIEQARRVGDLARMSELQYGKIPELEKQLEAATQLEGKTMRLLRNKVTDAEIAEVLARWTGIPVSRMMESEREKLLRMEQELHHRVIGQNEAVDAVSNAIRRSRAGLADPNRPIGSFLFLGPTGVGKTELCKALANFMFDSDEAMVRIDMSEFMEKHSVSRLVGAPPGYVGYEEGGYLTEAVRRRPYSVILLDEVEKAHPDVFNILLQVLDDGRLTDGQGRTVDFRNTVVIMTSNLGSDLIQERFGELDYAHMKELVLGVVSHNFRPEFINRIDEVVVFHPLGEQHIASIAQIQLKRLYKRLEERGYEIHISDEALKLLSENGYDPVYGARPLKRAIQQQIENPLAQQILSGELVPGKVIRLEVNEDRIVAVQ

Consider “ClpB: recombinant 857 amino acid chaperone protein ClpB of E. coli K12 (SEQ ID NO: 1), injected I.P. with Freund's adjuvant for immunization”, for which the “plasma levels of α-MSH-reactive IgG” value in the data set on C57B16 mice [1] (ClpB immunized mice) was “Increased plasma levels”. For the same substance, the “plasma levels of ClpB IgG” value in the data set with C57B16 mice [1] (ClpB immunized mice vs other groups (adjuvant, PBS, controls)) is “higher plasma levels”. In addition, the “plasma ACTH-reactive IgG” value in the data set on C57B16 mice [1] (among the groups) is given as “No significant differences”. Moreover, the “plasma levels of α-MSH IgM autoAbs” value in the data set with C57B16 mice [1] (between the groups) was “did not significantly differ”. The “affinity of anti-ClpB IgG for ClpB” value with ClpB was “lower affinities”. The “affinity of IgG for α-MSH” value with α-MSH is recorded as “lower affinities for α-MSH”. Moreover, in the data set with C57B16 mice [2] (BioDAQ), the meal number entry is listed as “did not change”. For the same substance, the meal size entry with C57B16 mice [2] (BioDAQ, last 10 days) is on record as “increased meal size”. In the data set with C57B16 mice [2] (BioDAQ, last 10 days of the experiment), the “higher mean daily food intake as compared to other groups” value was 13%. For the same substance, in the data set with C57B16 mice [2] (ClpB and CFA, I.P., expected inflammatory response to immunization), the “body weight for few days after injections” value is recorded as “lower body weight”. Also, the “higher body weight vs. controls at the end of the experiment” value in the data set with C57B16 mice [2] (ClpB immunized mice, 32 days study) is given as 5%. Moreover, in the data set on C57B16 mice [2] (setting [5]), the “24 h food intake following α-MSH injection” value is “did not differ from controls” and the “body weight 24 h following α-MSH injection” value was “did not differ from controls”. The “parameters in the O-maze open arms” value with C57B16 mice [3] (ClpB group) was “did not significantly change”. Further, the “time spent in the closed arms of the O-maze” value with C57B16 mice [3] (ClpB-immunized mice vs all other groups) is “less time”. For the same substance, in the data set with C57B16 mice [3] (ClpB-immunized mice vs controls), the “distance moved in the closed arms of the O-maze” value is “shorter distance”. In the data set with C57B16 mice [3] (open field, among the groups), the “time spent in the open vs. border areas” value is “did not significantly differ” and the total locomotor activity entry was “did not significantly differ”. For the same substance, in data set [4] (ClpB digested by trypsin), the “Western blot detection by anti-α-MSH antiserum after trypsin digestion” value is “No band was detected”. Also, the “Western blot detection by anti-α-MSH antiserum” value in data set [4] (intact recombinant ClpB) was “single 96 kDa band”.
